Reference: ChEMBL document CHEMBL1201862, “PubChem BioAssay data set” (2004)
Active and inactive are the calls of the source.

Columns and labels:
[1] = target: Voltage-dependent T-type calcium channel subunit alpha-1H (Homo sapiens, UniProt O95180); type: functional;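 note: channel activity triggered by adding a high calcium stimulation buffer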
[2] = target: T1, Zinc finger protein mex-5 (Caenorhabditis elegans, UniProt Q9XUB2); assay: potency of MEX-5 RNA-binding blockers – biochemical, C. elegans, fluorescence polarization, dose response (AID 1960)
T1 sequence (Q9XUB2 whole entry): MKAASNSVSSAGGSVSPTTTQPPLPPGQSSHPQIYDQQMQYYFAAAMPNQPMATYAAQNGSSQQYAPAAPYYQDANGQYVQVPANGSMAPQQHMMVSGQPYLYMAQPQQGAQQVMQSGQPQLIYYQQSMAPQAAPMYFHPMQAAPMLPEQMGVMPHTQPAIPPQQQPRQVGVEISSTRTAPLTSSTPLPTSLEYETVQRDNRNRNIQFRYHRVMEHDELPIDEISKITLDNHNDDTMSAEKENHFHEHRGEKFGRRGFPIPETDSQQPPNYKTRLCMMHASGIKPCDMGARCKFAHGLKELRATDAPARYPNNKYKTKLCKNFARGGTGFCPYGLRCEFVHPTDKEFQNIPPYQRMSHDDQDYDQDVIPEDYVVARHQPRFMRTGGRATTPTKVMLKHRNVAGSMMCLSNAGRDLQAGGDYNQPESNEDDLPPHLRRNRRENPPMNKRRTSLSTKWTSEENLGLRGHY

[3] = target: T2, RNA-binding protein pos-1 (Caenorhabditis elegans, UniProt G5EF15); assay: disruptors of C. elegans POS-1 RNA interaction – biochemical, fluorescence polarization, dose response (AID 1964);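 note: purified POS-1 fused to maltose binding protein made in E. coli; potency of compounds blocking POS-1 binding to fluorescent RNA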
T2 sequence (G5EF15 whole entry): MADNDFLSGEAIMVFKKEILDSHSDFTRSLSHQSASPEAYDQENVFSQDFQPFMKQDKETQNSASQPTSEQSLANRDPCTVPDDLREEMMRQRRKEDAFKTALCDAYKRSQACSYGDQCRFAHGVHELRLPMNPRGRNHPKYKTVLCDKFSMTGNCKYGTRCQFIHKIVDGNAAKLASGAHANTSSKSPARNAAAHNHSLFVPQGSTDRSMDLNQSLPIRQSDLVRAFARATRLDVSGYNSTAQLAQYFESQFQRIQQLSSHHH

Albumin = Albumin (Bos taurus, UniProt P02769); assay: Counterscreen for inhibitors of T-cell receptor (TCR)-CD3 interaction: Fluorescence-based biochemical high throughput dose response assay to identify inhibitors of T-cell receptor (TCR)-CD3 interaction using a TAMRA-labeled BSA probe.; type: functional
Sequence of Albumin (P02769 whole entry): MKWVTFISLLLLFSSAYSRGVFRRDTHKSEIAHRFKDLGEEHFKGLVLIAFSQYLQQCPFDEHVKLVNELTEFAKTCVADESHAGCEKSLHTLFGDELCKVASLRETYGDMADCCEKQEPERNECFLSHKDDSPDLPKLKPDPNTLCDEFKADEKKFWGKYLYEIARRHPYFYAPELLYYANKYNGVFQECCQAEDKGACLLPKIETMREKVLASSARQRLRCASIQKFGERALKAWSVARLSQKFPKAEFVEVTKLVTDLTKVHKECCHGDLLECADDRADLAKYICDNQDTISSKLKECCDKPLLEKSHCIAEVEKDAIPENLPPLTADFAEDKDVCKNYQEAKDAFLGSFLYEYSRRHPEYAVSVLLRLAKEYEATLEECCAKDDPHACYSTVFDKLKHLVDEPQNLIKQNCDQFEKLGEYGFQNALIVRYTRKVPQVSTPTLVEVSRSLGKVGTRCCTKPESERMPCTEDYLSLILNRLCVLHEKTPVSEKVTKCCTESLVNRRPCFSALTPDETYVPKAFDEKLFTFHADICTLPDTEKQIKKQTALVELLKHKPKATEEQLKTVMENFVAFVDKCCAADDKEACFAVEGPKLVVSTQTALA

Prothrombin = Prothrombin (Bos taurus, UniProt P00735); assay: thrombin protease inhibitors – biochemical, fluorescence polarization, uHTS hits, dose response (AID 602369); type: functional
[4] = target: Transitional endoplasmic reticulum ATPase (Homo sapiens, UniProt P55072, C522A); assay: C522A mutant p97 ATPase inhibitors, dose response, counter-screen for p97 inhibitor project, biochemical, luminescence (AID 1544)
[5] = target: T3, Small ubiquitin-related modifier 1 (Homo sapiens, UniProt P63165); assay: SUMO1 protein-protein binding blockers, potency – biochemical, FRET, dose response (AID 624383); type: functional; settings: read-out: IC50_Mean
T3 sequence (P63165 whole entry): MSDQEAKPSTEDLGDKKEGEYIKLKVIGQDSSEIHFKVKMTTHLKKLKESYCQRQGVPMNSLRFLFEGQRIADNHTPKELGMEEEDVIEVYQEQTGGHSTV

[6] = target: T4, RNA-editing ligase 1, mitochondrial (Trypanosoma brucei brucei, UniProt P86926); assay: inhibition of trypanosome RNA editing ligase – biochemical, fluorescence, Trypanosoma brucei, dose response (AID 1117295); type: functional
T4 sequence (P86926 whole entry): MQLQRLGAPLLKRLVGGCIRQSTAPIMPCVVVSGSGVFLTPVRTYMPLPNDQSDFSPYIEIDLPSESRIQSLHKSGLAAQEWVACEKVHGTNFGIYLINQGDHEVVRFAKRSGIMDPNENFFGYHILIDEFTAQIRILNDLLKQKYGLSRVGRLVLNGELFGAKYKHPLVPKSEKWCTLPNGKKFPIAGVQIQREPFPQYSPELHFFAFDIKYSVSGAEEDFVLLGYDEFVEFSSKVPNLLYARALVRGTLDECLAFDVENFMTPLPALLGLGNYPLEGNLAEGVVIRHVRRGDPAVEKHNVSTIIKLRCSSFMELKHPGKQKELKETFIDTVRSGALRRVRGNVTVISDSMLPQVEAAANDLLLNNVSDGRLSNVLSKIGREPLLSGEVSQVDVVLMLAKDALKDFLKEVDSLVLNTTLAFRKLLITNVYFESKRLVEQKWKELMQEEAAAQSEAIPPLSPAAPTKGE

Aminopeptidase N = target: T5, Aminopeptidase N (Plasmodium falciparum FcB1/Columbia, UniProt O96935); assay: malaria alanyl aminopeptidase activity blockers – biochemical, fluorogenic H-Leu-NHMec substrate, 1536-well (AID 1445); design: species or system Plasmodium falciparum 3D7, 3D7
T5 sequence (O96935 whole entry): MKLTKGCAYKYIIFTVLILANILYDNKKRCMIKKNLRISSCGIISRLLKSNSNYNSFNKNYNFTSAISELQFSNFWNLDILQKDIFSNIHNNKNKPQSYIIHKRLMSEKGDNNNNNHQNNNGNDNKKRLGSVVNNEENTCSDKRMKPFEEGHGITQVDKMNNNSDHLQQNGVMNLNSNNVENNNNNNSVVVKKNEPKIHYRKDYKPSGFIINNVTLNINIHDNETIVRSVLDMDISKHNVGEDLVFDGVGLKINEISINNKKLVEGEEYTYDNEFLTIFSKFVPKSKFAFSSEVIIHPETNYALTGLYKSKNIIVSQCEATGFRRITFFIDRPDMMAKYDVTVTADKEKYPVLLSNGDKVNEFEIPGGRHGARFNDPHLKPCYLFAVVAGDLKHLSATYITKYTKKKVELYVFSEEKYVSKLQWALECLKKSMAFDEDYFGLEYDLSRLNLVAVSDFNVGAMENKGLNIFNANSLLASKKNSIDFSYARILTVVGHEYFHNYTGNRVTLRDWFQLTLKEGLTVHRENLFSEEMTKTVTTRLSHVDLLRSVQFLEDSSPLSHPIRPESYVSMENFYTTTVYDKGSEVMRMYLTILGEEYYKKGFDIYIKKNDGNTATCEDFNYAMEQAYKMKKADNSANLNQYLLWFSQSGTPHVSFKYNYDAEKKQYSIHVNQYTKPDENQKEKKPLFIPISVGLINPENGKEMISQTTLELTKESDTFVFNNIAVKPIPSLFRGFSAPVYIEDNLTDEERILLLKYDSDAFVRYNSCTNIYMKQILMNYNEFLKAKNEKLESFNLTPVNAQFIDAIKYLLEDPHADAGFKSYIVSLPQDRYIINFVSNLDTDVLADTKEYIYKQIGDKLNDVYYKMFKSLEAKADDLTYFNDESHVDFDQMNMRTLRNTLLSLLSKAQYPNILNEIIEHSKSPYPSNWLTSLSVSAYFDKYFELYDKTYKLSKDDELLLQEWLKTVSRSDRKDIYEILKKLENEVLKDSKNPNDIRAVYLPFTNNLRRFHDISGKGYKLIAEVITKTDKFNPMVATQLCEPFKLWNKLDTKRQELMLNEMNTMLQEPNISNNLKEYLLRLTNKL

[7] = target: Transitional endoplasmic reticulum ATPase (Homo sapiens, UniProt P55072); assay: p97 ATPase inhibitors, dose response, biochemical (AID 1534)
Sequence of Transitional endoplasmic reticulum ATPase (Homo sapiens, UniProt P55072) (P55072 whole entry): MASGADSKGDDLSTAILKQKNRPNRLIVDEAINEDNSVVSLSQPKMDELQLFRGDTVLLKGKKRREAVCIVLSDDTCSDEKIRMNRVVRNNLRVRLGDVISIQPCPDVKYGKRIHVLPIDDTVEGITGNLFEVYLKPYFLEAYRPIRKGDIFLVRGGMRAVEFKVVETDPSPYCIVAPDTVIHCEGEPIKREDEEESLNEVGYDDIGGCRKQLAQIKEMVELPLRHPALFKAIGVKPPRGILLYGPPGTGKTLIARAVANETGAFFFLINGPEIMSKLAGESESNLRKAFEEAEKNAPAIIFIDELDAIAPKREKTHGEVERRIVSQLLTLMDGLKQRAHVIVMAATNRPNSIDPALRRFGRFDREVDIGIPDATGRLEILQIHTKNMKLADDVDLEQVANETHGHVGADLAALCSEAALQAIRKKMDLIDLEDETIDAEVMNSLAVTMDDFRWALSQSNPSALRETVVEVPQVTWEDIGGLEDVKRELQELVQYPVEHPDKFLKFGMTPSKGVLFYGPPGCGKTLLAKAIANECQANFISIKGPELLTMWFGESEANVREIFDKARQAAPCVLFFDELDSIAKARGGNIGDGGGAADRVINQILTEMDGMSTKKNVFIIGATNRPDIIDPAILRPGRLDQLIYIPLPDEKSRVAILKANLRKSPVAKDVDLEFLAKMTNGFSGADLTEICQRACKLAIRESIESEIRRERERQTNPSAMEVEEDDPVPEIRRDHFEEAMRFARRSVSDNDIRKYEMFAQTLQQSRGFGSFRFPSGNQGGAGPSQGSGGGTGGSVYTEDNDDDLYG

[8] = target: 26S proteasome non-ATPase regulatory subunit 14 (Homo sapiens, UniProt O00487); assay: inhibition of proteasome subunit RPN11 – biochemical, fluorescence polarization, uHTS hits, confirmation (AID 602368); type: functional
Sequence of 26S proteasome non-ATPase regulatory subunit 14 (O00487 whole entry): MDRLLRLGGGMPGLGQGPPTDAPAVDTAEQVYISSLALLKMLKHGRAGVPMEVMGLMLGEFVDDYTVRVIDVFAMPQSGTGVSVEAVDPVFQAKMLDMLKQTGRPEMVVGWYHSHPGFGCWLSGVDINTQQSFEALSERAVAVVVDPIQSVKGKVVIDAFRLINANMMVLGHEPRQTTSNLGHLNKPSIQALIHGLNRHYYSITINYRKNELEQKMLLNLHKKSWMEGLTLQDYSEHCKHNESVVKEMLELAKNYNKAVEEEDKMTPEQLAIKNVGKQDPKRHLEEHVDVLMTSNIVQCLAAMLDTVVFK

[9] = target: T3, Small ubiquitin-related modifier 1; assay: SUMO1 protein interaction blockers, potency – biochemical, fluorescence polarization, uHTS hits, dose response (AID 624382); type: functional; settings: read-out: IC50_Mean
[10] = target: T6, Bifunctional protein GlmU (Mycobacterium tuberculosis, UniProt P9WMN3); assay: Inhibitors of Mycobacterial Glucosamine-1-phosphate acetyl transferase (GlmU). Secondary screen.; design: species or system Mycobacterium tuberculosis H37Rv
T6 sequence (P9WMN3 whole entry): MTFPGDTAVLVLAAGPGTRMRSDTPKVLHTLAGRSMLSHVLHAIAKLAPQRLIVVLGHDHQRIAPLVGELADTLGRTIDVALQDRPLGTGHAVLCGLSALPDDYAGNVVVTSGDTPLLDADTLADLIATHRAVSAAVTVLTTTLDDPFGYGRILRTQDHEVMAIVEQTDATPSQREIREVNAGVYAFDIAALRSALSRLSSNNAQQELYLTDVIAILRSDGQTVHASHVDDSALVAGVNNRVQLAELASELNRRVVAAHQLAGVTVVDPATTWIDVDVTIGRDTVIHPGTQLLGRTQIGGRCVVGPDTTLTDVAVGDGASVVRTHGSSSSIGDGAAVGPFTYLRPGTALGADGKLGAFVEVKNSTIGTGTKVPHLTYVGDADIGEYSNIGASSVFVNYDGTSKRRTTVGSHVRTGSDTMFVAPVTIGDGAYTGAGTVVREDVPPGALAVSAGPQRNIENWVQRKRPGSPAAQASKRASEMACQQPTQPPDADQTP

[11] = target: Induced myeloid leukemia cell differentiation protein Mcl-1 (Homo sapiens, UniProt Q07820); type: functional
[12] = target: 72 kDa type IV collagenase (Homo sapiens, UniProt P08253); assay: Dose Response validation of uHTS RPN11 inhibitor hits using a MMP-2 Fluorescence assay.; type: functional
Sequence of 72 kDa type IV collagenase (P08253 whole entry): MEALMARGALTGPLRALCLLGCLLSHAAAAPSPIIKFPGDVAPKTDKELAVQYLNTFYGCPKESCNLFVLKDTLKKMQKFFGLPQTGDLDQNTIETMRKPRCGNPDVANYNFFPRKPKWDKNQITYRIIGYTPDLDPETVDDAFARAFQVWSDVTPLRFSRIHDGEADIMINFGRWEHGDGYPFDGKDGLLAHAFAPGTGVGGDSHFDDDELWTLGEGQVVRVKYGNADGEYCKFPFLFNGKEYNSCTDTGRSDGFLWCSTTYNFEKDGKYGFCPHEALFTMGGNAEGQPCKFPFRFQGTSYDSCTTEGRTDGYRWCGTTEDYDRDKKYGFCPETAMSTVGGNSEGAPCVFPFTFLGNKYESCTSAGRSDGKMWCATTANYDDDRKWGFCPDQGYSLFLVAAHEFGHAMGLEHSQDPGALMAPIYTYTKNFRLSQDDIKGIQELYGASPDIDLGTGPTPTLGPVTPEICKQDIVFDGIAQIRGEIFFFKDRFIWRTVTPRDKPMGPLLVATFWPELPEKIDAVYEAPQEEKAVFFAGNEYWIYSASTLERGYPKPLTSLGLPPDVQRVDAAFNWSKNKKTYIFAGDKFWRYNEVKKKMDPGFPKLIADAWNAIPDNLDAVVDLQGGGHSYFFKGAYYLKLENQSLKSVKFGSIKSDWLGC

CAAX prenyl protease 2 = target: T7, CAAX prenyl protease 2 (Saccharomyces cerevisiae S288c, UniProt Q03530); type: biochemical
T7 sequence (Q03530 whole entry): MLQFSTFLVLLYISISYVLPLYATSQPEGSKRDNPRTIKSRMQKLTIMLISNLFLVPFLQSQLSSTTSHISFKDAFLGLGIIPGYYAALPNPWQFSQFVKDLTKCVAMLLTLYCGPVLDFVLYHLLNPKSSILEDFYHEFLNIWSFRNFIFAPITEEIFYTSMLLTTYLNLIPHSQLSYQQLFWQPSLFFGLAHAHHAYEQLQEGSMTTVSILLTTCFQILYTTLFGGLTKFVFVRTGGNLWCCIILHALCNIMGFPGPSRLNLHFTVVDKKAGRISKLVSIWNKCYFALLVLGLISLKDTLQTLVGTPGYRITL

Trypsin = Trypsin (Sus scrofa, UniProt P00761); assay: trypsin protease activity blockade – biochemical, quenched peptide fluorescence, cherry-pick, selectivity assay for Rce1 protease inhibitor project, dose response (AID 488789)
Sequence of Trypsin (P00761 whole entry): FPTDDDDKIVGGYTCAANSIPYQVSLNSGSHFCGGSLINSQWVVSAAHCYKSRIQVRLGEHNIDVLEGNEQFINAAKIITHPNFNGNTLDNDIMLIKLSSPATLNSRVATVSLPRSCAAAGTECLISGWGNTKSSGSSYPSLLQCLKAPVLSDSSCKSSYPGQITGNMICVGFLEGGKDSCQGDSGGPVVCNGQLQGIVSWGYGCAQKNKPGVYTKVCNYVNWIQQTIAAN

Sequence of Voltage-dependent T-type calcium channel subunit alpha-1H (O95180 whole entry): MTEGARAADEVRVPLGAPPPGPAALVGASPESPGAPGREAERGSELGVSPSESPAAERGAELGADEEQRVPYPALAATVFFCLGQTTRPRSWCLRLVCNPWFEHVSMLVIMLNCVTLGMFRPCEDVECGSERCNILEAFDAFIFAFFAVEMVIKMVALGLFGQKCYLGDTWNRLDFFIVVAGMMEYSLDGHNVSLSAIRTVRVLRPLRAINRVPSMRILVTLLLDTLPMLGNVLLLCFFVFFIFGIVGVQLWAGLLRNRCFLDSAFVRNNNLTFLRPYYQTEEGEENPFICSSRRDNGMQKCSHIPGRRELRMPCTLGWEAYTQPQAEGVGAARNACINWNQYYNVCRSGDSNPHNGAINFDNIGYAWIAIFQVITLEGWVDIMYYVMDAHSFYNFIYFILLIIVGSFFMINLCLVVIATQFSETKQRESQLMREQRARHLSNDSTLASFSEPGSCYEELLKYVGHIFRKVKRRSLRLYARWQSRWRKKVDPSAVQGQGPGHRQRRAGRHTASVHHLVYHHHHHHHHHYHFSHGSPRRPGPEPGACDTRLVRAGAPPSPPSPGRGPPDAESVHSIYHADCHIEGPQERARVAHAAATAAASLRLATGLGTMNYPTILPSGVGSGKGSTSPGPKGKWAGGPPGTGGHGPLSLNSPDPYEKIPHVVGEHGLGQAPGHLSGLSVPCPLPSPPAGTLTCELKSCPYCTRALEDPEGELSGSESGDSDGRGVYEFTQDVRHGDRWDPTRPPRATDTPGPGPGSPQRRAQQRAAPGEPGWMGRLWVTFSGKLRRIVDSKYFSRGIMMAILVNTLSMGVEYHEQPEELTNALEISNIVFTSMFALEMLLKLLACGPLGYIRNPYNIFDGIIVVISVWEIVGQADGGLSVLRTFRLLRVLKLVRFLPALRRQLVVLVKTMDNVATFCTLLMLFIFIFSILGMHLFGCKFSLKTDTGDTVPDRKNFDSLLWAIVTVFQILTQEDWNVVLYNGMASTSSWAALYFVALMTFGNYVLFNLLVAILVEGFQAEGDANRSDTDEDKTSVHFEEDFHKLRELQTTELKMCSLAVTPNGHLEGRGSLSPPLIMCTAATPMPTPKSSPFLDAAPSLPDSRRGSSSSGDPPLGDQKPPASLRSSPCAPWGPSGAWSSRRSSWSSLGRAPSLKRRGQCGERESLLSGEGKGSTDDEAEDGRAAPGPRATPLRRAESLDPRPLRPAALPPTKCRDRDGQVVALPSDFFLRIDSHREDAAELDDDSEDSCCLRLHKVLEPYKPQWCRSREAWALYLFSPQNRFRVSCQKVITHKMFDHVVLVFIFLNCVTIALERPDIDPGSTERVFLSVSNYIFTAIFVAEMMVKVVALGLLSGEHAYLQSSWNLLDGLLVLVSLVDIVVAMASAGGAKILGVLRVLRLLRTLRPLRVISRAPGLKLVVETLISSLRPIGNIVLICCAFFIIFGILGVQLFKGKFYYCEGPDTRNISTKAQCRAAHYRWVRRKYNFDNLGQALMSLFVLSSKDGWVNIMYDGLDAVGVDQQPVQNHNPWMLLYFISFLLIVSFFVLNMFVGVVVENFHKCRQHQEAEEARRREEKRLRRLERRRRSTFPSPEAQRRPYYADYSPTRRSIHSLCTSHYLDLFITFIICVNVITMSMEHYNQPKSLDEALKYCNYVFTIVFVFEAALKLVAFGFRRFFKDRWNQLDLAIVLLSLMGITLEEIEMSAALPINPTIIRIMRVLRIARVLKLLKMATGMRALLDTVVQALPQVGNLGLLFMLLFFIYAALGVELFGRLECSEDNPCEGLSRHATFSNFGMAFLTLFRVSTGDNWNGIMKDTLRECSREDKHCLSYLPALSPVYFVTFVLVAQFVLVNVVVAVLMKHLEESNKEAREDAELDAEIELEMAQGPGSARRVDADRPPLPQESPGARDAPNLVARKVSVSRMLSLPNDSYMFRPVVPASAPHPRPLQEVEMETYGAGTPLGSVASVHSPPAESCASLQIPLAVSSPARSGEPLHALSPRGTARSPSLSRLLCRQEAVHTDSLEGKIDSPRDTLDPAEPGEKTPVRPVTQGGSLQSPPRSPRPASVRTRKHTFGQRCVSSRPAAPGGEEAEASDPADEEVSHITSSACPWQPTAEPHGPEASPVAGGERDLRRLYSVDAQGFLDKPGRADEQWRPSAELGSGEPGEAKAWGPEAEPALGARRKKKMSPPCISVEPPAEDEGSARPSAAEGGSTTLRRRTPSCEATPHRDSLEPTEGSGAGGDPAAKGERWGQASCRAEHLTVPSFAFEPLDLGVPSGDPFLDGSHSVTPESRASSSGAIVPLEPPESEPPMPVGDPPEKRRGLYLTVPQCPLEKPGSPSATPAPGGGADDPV

How did the EC50 [1] turn out when `CCCOc1cc(C)c(S(=O)(=O)n2ccc(C)n2)cc1C` was run?
The EC50 was 5.47 µM (active).

For `Cc1n[nH]c(S/C(=C\c2ccc(-c3ccc(C(=O)O)c(Cl)c3)o2)C(=O)O)n1`, which EC50 [2] is on record?
The EC50 was 1.38 µM (active).

What about the EC50 [3] of the same compound?
Its EC50 is 1.76 µM (active).

And the IC50 (Albumin)?
The IC50 was > 94.1 µM (inactive).

And the IC50 (Prothrombin)?
The IC50 was 9.79 µM (active).

What about the IC50 [4] of the same compound?
The IC50 was > 50 µM (not active).

And the IC50 [5]?
The IC50 was 13.1 µM (active).

What about the IC50 [6] of the same compound?
Its IC50 is 22.9 µM (inactive).

And the IC50 (Aminopeptidase N)?
The IC50 was 11.3 µM (active).

What about the IC50 [7] of the same compound?
Its IC50 is > 50 µM (not active).

What about the IC50 [8] of the same compound?
Its IC50 is 9.04 µM (active).

And the IC50 [9]?
The IC50 was > 66.6 µM (inactive).

And the IC50 [10]?
The IC50 was 61.9 µM (active).

What about the IC50 [11] of the same compound?
Its IC50 is 2.35 µM (active).

And the IC50 [12]?
The IC50 was > 100 µM (inactive).

How did the AC50 (CAAX prenyl protease 2) turn out when `Cc1cc(-c2ccccc2)n2nc(C)c(C#N)c2n1` was run?
The AC50 was 15.5 µM (active).

What about the AC50 (Trypsin) of the same compound?
Its AC50 is 3.3 µM (active).
